Experimental data as given in patent publication US20050080096A1, “Condensed heterocyclic compounds” (priority 2002, published 2005).

Each molecule was assayed against recombinant human PARP (Homo sapiens, UniProt P09874) (assay: PARP Inhibitory Activity (In vitro assay)). Settings: 32P-NAD, activated DNA, 15 minutes at room temperature, pH8.0.
Type: biochemical
Protocol: The recombinant human PARP (5.3 mg protein/ml) were incubated with a test compound in a 100 μl reaction buffer containing the indicated concentration of 1 mCi/ml ^32P-NAD, 50 mM Tris-HCl, 25 mM MgCl2, 1 mM DTT (dithiothreitol), 0.05 mM NAD (nicotinamido adenine dinucleotide), lmg/mi activated DNA, pH8.0. Incubation was for 15 minutes at a room temperature and the reaction was stopped by the addition of 200 μl of ice-cold 20% trichloroacetic acid followed by rapid filtration through GF/B filters. The filters were treated with scintillation fluid and acid-insoluble counts were measured for quantification of unit activity.
PARP Inhibitory Activity (%)=
[1-(enzyme activity with test compound)/(enzyme activity with vehicle)]×100

Chain of recombinant human PARP (P09874 whole entry): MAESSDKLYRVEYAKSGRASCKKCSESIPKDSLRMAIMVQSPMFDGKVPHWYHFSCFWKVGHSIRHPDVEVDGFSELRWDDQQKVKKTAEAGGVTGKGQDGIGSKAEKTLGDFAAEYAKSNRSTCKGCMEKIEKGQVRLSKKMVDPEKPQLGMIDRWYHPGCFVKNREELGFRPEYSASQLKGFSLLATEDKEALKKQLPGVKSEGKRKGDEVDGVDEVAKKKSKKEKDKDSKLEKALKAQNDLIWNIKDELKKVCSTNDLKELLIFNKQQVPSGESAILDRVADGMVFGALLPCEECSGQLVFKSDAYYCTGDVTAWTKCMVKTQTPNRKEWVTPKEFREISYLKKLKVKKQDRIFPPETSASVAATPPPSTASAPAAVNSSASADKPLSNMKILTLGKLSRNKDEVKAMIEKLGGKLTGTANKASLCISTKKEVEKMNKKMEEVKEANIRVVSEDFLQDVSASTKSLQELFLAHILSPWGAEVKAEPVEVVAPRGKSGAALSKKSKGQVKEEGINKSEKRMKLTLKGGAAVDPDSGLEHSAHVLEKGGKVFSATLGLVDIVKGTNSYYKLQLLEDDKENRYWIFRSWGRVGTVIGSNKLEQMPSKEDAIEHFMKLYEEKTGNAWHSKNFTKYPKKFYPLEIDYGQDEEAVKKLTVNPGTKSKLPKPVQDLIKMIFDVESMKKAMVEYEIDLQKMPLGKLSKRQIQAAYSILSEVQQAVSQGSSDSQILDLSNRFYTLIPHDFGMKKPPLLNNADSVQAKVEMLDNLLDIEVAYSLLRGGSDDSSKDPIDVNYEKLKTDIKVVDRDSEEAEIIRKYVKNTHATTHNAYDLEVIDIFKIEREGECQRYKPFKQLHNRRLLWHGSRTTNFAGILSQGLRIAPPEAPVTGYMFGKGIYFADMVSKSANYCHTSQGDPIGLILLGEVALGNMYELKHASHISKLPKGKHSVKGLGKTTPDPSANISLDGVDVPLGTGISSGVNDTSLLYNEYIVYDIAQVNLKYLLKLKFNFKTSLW

| IC50 [nM] | Structure (SMILES) |
| --- | --- |
| < 500 | O=c1[nH]c(CCCN2CC=C(c3ccccc3)CC2)nc2c1CCCC2 [Compound A, 2-[3-(4-Phenyl-3,6-dihydro-1(2H)-pyridyl)propyl]-5,6,7,8-tetrahydro-4(3H)-quinazolinone] |
| < 500 | Cn1c2c(c3ccccc31)CCN(CCCCc1n[nH]c(=O)c3ccccc13)C2 [Compound D] |
| < 500 | O=c1[nH]c(CCCN2CC=C(c3ccccc3)CC2)nc2c1CSCC2 [Compound B, 2-[3-(4-Phenyl-3,6-dihydro-1(2H)-pyridyl)propyl]-3,5,7,8-tetrahydro4H-thiopyrano[4,3-d]pyrimidin-4-one] |

| Structure (SMILES) | IC50 [nM] |
| --- | --- |
| O=c1[nH]nc(CCCCN2CC=C(c3ccccc3)CC2)c2ccccc12 [Compound C, 4-[4-(4-Phenyl-3,6dihydro-1(2H)-pyridyl)butyl]-1(2H)-phthalazinone] | < 500 |
